# Counter-ions that a name gives are not always drawn.
# Assays:
# JNK phosphorylation = assay: JNK Activation Assay (western blot), Panc-1; format: cell-based, human; conditions: at 10 μM, Panc-1 pancreatic cancer cell line; starred symbols = activation
# How it was run: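 KRas G12C Panc-1 cells treated 6 h at 37 °C with compound at 10 μM (0.3% DMSO), or serial dilutions for IC50. In Method 1 cells were serum-starved overnight (0.5% FBS) then stimulated with 1.5 ng/ml EGF for 15 min; Method 2 used 10% FBS without stimulation. Phospho-JNK (Thr183/Tyr185) measured by western blot.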
# cdc42 = molecular target: T1, cdc42 (Homo sapiens, UniProt P60953); assay: Cdc42 GTP Binding Domain Inhibition Assay; conditions: read-out: Cdc42: % inh.
# T1 construct: made in house
# T1 sequence (P60953 whole entry, the tested form may be a part): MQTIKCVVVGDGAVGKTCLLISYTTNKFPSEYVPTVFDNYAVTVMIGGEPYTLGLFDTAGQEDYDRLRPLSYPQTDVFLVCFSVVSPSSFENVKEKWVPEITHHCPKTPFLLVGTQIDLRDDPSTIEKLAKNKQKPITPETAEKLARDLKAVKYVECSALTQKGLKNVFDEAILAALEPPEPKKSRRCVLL
# How it was run: (§1)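 His-tagged cdc42 or Rheb (10–30 μg/mL) bound to nickel plates, then exposed to compound (20 μM, or serial dilutions for IC50) in 1% DMSO for 3 h at room temperature, ±Sos during final hour. Cy3- or Cy5-GTP (100 nM) added for 45 min; bound labelled GTP read by fluorescence after washes.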
# Rheb = molecular target: T2, Rheb (Homo sapiens, UniProt Q15382); assay: Rheb GTP Binding Domain Inhibition Assay; conditions: read-out: Rheb: % inh.
# T2 construct: made in house
# T2 sequence (Q15382 whole entry, the tested form may be a part): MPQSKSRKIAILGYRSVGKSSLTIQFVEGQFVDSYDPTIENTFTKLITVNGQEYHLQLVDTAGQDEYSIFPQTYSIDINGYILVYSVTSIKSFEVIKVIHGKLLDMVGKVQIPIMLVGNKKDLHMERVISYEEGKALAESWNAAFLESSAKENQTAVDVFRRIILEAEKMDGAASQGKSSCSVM
# How it was run: as §1
inhibition at 20 µM (cdc42) [%],inhibition at 20 µM (Rheb) [%],SMILES,% inh of JNK in Panc-1 (JNK phosphorylation)
,,"CO[C@H]1CC[C@@H](Nc2nc(-c3nccn3C)nn3cc(-c4ccn(C(C)C)n4)c(C)c23)C1 (racemic) [Compound 1, rac 6-(1-Isopropyl-1H-pyrazol-3-yl)-N-((1R,3S)-3-methoxycyclopentyl)-5-methyl-2-(1-methyl-1H-imidazol-2-yl)pyrrolo[2,1-f][1,2,4]triazin-4-amine]",F* (F* = 31-74% activation)
,,"COCC1CCN(c2nc(-c3nccn3C)nn3cc(-c4ccn(C(C)C)n4)c(C)c23)C1 (racemic) [Compound 2, rac 6-(1-Isopropyl-1H-pyrazol-3-yl)-4-(3-(methoxymethyl)pyrrolidin-1-yl)-5-methyl-2-(1-methyl-1H-imidazol-2-yl)pyrrolo[2,1-f][1,2,4]triazine]",F* (F* = 31-74% activation)
,,"COC[C@@H]1CC[C@@H]1CNc1nc(-c2nccn2C)nn2cc(-c3ccn(C(C)C)n3)c(C)c12 (racemic) [Compound 3, rac 6-(1-Isopropyl-1H-pyrazol-3-yl)-N-(((1S,2R)-2-(methoxymethyl)cyclobutyl)methyl)-5-methyl-2-(1-methyl-1H-imidazol-2-yl)pyrrolo[2,1-f][1,2,4]triazin-4-amine]",H* (H* ≥ 100% activation)
,,"COC1CCCN(c2nc(-c3nccn3C)nn3cc(-c4ccn(C(C)C)n4)c(C)c23)C1 (racemic) [Compound 4, rac 6-(1-Isopropyl-1H-pyrazol-3-yl)-5-methyl-2-(1-methyl-1H-imidazol-2-yl)-4-(3-(oxo-γ6-methyl)piperidin-1-yl)pyrrolo[2,1-f][1,2,4]triazine]",G* (G* = 75-99% activation)
,,"CO[C@H]1CC[C@@H](Nc2nc(-c3nccn3C)nn3cc(-c4ccn(C(C)C)n4)c(-c4ccccc4)c23)C1 (racemic) [Compound 18, rac 6-(1-Isopropyl-1H-pyrazol-3-yl)-N-((1R,3S)-3-methoxycyclopentyl)-2-(1-methyl-1H-imidazol-2-yl)-5-phenylpyrrolo[2,1-f][1,2,4]triazin-4-amine hydrochloride]",F* (F* = 31-74% activation)
,,"COCC1CCN(c2nc(-c3nccn3C)nn3cc(-c4ccn(C(C)C)n4)c(-c4ccccc4)c23)C1.Cl (racemic) [Compound 19, rac 6-(1-Isopropyl-1H-pyrazol-3-yl)-4-(3-(methoxymethyl)pyrrolidin-1-yl)-2-(1-methyl-1H-imidazol-2-yl)-5-phenylpyrrolo[2,1-f][1,2,4]triazine hydrochloride salt]",F* (F* = 31-74% activation)
,,"COC[C@@H]1CC[C@@H]1CNc1nc(-c2nccn2C)nn2cc(-c3ccn(C(C)C)n3)c(-c3ccccc3)c12 (racemic) [Compound 20, rac 6-(1-Isopropyl-1H-pyrazol-3-yl)-N-(((1S,2R)-2-(methoxymethyl)cyclobutyl)methyl)-2-(1-methyl-1H-imidazol-2-yl)-5-phenylpyrrolo[2,1-f][1,2,4]triazin-4-amine]",H* (H* ≥ 100% activation)
,,"COC1CCCN(c2nc(-c3nccn3C)nn3cc(-c4ccn(C(C)C)n4)c(-c4ccccc4)c23)C1 (racemic) [Compound 21, rac 6-(1-Isopropyl-1H-pyrazol-3-yl)-4-(3-methoxypiperidin-1-yl)-2-(1-methyl-1H-imidazol-2-yl)-5-phenylpyrrolo[2,1-f][1,2,4]triazine]",H* (H* ≥ 100% activation)
1 to 25,26 to 49,"COc1cccc(-c2cn3nc(-c4nccn4C)nc(N[C@@H]4CC[C@@H](OC)C4)c3c2-c2ccccc2)c1Cl.Cl (racemic) [Compound 34, rac 6-(2-Chloro-3-methoxyphenyl)-N-((1R,3R)-3-methoxycyclopentyl)-2-(1-methyl-1H-imidazol-2-yl)-5-phenylpyrrolo[2,1-f][1,2,4]triazin-4-amine hydrochloride]",H (H = 100% inhibition)
,,"COc1cccc(Nc2nc(-c3nccn3C)nn3cc(-c4ccn(C(C)C)n4)c(C)c23)n1 [Compound 7, 6-(1-Isopropyl-1H-pyrazol-3-yl)-N-(6-methoxypyridin-2-yl)-5-methyl-2-(1-methyl-1H-imidazol-2-yl)pyrrolo[2,1-f][1,2,4]triazin-4-amine]",H* (H* ≥ 100% activation)
,,"CC(C)n1ccc(-c2cn3nc(-c4nccn4C)nc(O)c3c2-c2ccccc2)n1 [Compound 17, 6-(1-Isopropyl-1H-pyrazol-3-yl)-2-(1-methyl-1H-imidazol-2-yl)-5-phenylpyrrolo[2,1-f][1,2,4]triazin-4-ol]",0 (0 = 0% inhibition)
,,"COc1cc(Nc2nc(-c3nccn3C)nn3cc(-c4ccn(C(C)C)n4)c(-c4ccccc4)c23)ncn1 [Compound 22, 6-(1-Isopropyl-1H-pyrazol-3-yl)-N-(6-methoxypyrimidin-4-yl)-2-(1-methyl-1H-imidazol-2-yl)-5-phenylpyrrolo[2,1-f][1,2,4]triazin-4-amine]",H* (H* ≥ 100% activation)
1 to 25,1 to 25,"Cc1c(-c2ccn(C(C)C)n2)cn2nc(-c3nccn3C)nc(Nc3noc(C4CC4)n3)c12 [Compound 75, 5-Cyclopropyl-N-(6-(1-isopropyl-1H-pyrazol-3-yl)-5-methyl-2-(1-methyl-1H-imidazol-2-yl)pyrrolo[2,1-f][1,2,4]triazin-4-yl)-1,2,4-oxadiazol-3-amine]",
1 to 25,0,"COCCO[C@H]1C[C@H](Nc2nc(-c3nccn3C)nn3cc(-c4ccn(C(C)C)n4)c(C)c23)C1 [Compound 92, 6-(1-Isopropyl-1H-pyrazol-3-yl)-N-((1r,3r)-3-(2-methoxyethoxy)cyclobutyl)-5-methyl-2-(1-methyl-1H-imidazol-2-yl)pyrrolo[2,1-f][1,2,4]triazin-4-amine]",

# From patent US12459951B2, “Compounds that interact with RAS superfamily proteins for treatment of cancers, inflammatory diseases, rasopathies, and fibrotic disease” (SHY Therapeutics, LLC, priority 2022, dated 2025)
